From patent publication US9260467B2, “Sialic acid dimers” (priority 2011, dated 2016)

biological target: T1, Siglec-2 (CD22) (Homo sapiens, UniProt P20273); test: new affinity assay: displacement of biotinylated compound 155 from sialidase-treated Daudi cells, FACS with streptavidin-PE; assay type: binding; set-up: endogenous in cells; host or cells: Daudi (human B-cell lymphoma line); details: Table II; rIP values set relative to compound 38; Daudi cells, displacement of compound 155
T1 sequence (P20273 20-847): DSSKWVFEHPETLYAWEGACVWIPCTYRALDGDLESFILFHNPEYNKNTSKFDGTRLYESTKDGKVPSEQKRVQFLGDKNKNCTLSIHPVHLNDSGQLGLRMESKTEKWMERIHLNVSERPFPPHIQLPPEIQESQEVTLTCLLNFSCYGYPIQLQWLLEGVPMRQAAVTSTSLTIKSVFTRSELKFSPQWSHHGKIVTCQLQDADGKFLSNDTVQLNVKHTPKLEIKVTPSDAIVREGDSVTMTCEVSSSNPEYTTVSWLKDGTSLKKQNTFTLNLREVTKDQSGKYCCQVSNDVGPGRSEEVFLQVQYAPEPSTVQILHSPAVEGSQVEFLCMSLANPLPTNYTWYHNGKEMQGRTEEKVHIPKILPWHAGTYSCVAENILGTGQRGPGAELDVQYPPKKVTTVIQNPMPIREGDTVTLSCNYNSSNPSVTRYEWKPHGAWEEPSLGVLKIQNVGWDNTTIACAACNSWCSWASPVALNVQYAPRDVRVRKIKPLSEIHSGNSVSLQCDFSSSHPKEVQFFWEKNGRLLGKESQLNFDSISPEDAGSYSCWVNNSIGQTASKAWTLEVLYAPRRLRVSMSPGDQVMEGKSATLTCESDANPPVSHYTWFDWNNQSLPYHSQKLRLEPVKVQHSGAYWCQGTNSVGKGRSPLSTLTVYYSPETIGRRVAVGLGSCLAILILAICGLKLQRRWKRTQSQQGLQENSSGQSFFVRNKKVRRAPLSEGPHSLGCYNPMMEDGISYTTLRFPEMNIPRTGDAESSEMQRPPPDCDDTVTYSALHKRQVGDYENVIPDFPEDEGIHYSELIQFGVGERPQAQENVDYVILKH
Procedure: To determine the affinity of the compound of the formula (I), approximately 5×10^6 to 2×10^8 cells of the human B-cell lymphoma line “Daudi” were incubated with sialidase (A. ureafaciens) at 37° C. for 1 h (final concentration 0.1 unit/ml). […] Batches of 1-2×10^6 cells were transferred to sample vessels, and incubated on ice for 15 min with serial concentrations (10-fold dilutions, 1 mM to 1×10^−7 mM) of the substance under measurement (inhibitor). The reaction volume was 50 μl. Then 50 microliters of compound 155 (4-micromolar) were added, and incubation took place for 20 min Washing with FACS buffer (PBS, 0.1 BSA, 0.01% sodium azide) was followed by incubation with streptavidin-PE in the dark for 15 min, followed by washing and measurement of the bound amount of […] via the streptavidin-PE in the FACS. For the determination of 0% displacement of the compound 155, cells without inhibitor were measured. For the determination of 100% displacement, cells were measured without compound 155 and without inhibitor. For each assay, four substances and one reference were measured. The IC50 values determined in each assay were subsequently converted into values of rIP (relative Inhibitory Potency). […]

Structure (SMILES) | rIP
CC(=O)N[C@H]1[C@H]([C@H](O)[C@H](O)CNC(=O)Cc2ccc3ccccc3c2)O[C@@](OCCCSCCNC(=O)c2ccc(C(=O)NCCSCCCO[C@]3(C(=O)[O-])C[C@H](O)[C@@H](NC(C)=O)[C@H]([C@H](O)[C@H](O)CNC(=O)Cc4ccc5ccccc5c4)O3)cc2)(C(=O)[O-])C[C@@H]1O.[Na+].[Na+] [Compound 66] | 197
CC(=O)N[C@H]1[C@H]([C@H](O)[C@H](O)CNC(=O)c2ccc(-c3ccccc3)cc2)O[C@@](OCCCSCCNC(=O)Nc2ccc(NC(=O)NCCSCCCO[C@]3(C(=O)[O-])C[C@H](O)[C@@H](NC(C)=O)[C@H]([C@H](O)[C@H](O)CNC(=O)c4ccc(-c5ccccc5)cc4)O3)cc2)(C(=O)[O-])C[C@@H]1O.[Na+].[Na+] [Compound 49] | 626
CC(=O)N[C@H]1[C@H]([C@H](O)[C@H](O)CNC(=O)c2ccc(-c3ccccc3)s2)O[C@@](OCCCSCCNC(=O)c2ccc(C(=O)NCCSCCCO[C@]3(C(=O)[O-])C[C@H](O)[C@@H](NC(C)=O)[C@H]([C@H](O)[C@H](O)CNC(=O)c4ccc(-c5ccccc5)s4)O3)cc2)(C(=O)[O-])C[C@@H]1O.[Na+].[Na+] [Compound 65] | 106
CC(=O)N[C@H]1[C@H]([C@H](O)[C@H](O)CNC(=O)c2ccc(-c3ccccc3)cc2)O[C@@](OCCCSCCNC(=O)C#CC(=O)NCCSCCCO[C@]2(C(=O)[O-])C[C@H](O)[C@@H](NC(C)=O)[C@H]([C@H](O)[C@H](O)CNC(=O)c3ccc(-c4ccccc4)cc3)O2)(C(=O)[O-])C[C@@H]1O.[Na+].[Na+] [Compound 25] | 4944
CC(=O)N[C@H]1[C@H]([C@H](O)[C@H](O)CNC(=O)c2ccc(-c3ccccc3)cc2)O[C@@](OCCCSCCNC(=O)c2ccc(C(=O)NCCSCCCO[C@]3(C(=O)[O-])C[C@H](OC(=O)c4ccccc4)[C@@H](NC(C)=O)[C@H]([C@H](O)[C@H](O)CNC(=O)c4ccc(-c5ccccc5)cc4)O3)cc2)(C(=O)[O-])C[C@@H]1OC(=O)c1ccccc1.[Na+].[Na+] [Compound 113] | 3522
CC(=O)N[C@H]1[C@H]([C@H](O)[C@H](O)CNC(=O)c2ccc(-c3ccccc3)cc2)O[C@@](OCCCSCCNCc2ccc(CNCCSCCCO[C@]3(C(=O)[O-])C[C@H](O)[C@@H](NC(C)=O)[C@H]([C@H](O)[C@H](O)CNC(=O)c4ccc(-c5ccccc5)cc4)O3)cc2)(C(=O)[O-])C[C@@H]1O.[Na+].[Na+] [Compound 52] | 31
CC(=O)N[C@H]1[C@H]([C@H](O)[C@H](O)Cn2cc(-c3ccccc3)nn2)O[C@@](OCCCSCCNC(=O)c2ccc(C(=O)NCCSCCCO[C@]3(C(=O)[O-])C[C@H](O)[C@@H](NC(C)=O)[C@H]([C@H](O)[C@H](O)Cn4cc(-c5ccccc5)nn4)O3)cc2)(C(=O)[O-])C[C@@H]1O.[Na+].[Na+] [Compound 95] | 6
CC(=O)N[C@H]1[C@H]([C@H](O)[C@H](O)CNC(=O)c2ccc(-c3ccccc3)cc2)O[C@@](OCCCSCCC(=O)Nc2c(C)c(C)c(NC(=O)CCSCCCO[C@]3(C(=O)[O-])C[C@H](O)[C@@H](NC(C)=O)[C@H]([C@H](O)[C@H](O)CNC(=O)c4ccc(-c5ccccc5)cc4)O3)c(C)c2C)(C(=O)[O-])C[C@@H]1O.[Na+].[Na+] [Compound 45] | 523
CC(=O)N[C@H]1[C@H]([C@H](O)[C@H](O)CNC(=O)c2ccc3c(c2)C(=O)c2ccccc2-3)O[C@@](OCCCSCCNC(=O)c2ccc(C(=O)NCCSCCCO[C@]3(C(=O)[O-])C[C@H](O)[C@@H](NC(C)=O)[C@H]([C@H](O)[C@H](O)CNC(=O)c4ccc5c(c4)C(=O)c4ccccc4-5)O3)cc2)(C(=O)[O-])C[C@@H]1O.[Na+].[Na+] [Compound 78] | 27
CC(=O)N[C@H]1[C@H]([C@H](O)[C@H](O)CNC(=O)c2ccc(-c3ccccc3)cc2)O[C@@](OCCC[S+]([O-])CCNC(=O)c2ccc(C(=O)NCC[S+]([O-])CCCO[C@]3(C(=O)[O-])C[C@H](O)[C@@H](NC(C)=O)[C@H]([C@H](O)[C@H](O)CNC(=O)c4ccc(-c5ccccc5)cc4)O3)cc2)(C(=O)[O-])C[C@@H]1O.[Na+].[Na+] (stereo partly drawn) [Compound 132] | 212
CC(=O)N[C@H]1[C@H]([C@H](O)[C@H](O)CNC(=O)c2ccc(-c3ccc(C)cc3)cc2)O[C@@](OCCCSCCNC(=O)c2ccc(C(=O)NCCSCCCO[C@]3(C(=O)[O-])C[C@H](O)[C@@H](NC(C)=O)[C@H]([C@H](O)[C@H](O)CNC(=O)c4ccc(-c5ccc(C)cc5)cc4)O3)cc2)(C(=O)[O-])C[C@@H]1O.[Na+].[Na+] [Compound 76] | 188
CC(=O)N[C@H]1[C@H]([C@H](O)[C@H](O)CNC(=O)c2ccc(-c3ccc(O)cc3)cc2)O[C@@](OCCCSCCNC(=O)c2ccc(C(=O)NCCSCCCO[C@]3(C(=O)[O-])C[C@H](O)[C@@H](NC(C)=O)[C@H]([C@H](O)[C@H](O)CNC(=O)c4ccc(-c5ccc(O)cc5)cc4)O3)cc2)(C(=O)[O-])C[C@@H]1O.[Na+].[Na+] [Compound 67] | 1959
CC(=O)N[C@H]1[C@H]([C@H](O)[C@H](O)CNC(=O)c2ccc(-c3ccccc3)cc2)O[C@@](NC(=O)CCCCCNC(=O)c2ccc(C(=O)NCCCCCC(=O)N[C@]3(C(=O)[O-])C[C@H](O)[C@@H](NC(C)=O)[C@H]([C@H](O)[C@H](O)CNC(=O)c4ccc(-c5ccccc5)cc4)O3)cc2)(C(=O)[O-])C[C@@H]1O.[Na+].[Na+] [Compound 116] | <1
CC(=O)N[C@H]1[C@H]([C@H](O)[C@H](O)CNC(=O)Cc2ccc(-c3ccccc3)cc2)O[C@@](OCCCSCCNC(=O)c2ccc(C(=O)NCCSCCCO[C@]3(C(=O)[O-])C[C@H](O)[C@@H](NC(C)=O)[C@H]([C@H](O)[C@H](O)CNC(=O)Cc4ccc(-c5ccccc5)cc4)O3)cc2)(C(=O)[O-])C[C@@H]1O.[Na+].[Na+] [Compound 79] | 181
CC(=O)N[C@H]1[C@H]([C@H](O)[C@H](O)CNC(=O)c2ccc(-c3ccccc3)cc2)O[C@@](OCCCSCC(NC(=O)c2ccc(C(=O)NC(CSCCCO[C@]3(C(=O)[O-])C[C@H](O)[C@@H](NC(C)=O)[C@H]([C@H](O)[C@H](O)CNC(=O)c4ccc(-c5ccccc5)cc4)O3)C(=O)[O-])cc2)C(=O)[O-])(C(=O)[O-])C[C@@H]1O.[Na+].[Na+].[Na+].[Na+] (stereo partly drawn) [Compound 149] | 378
CC(=O)N[C@H]1[C@H]([C@H](O)[C@H](O)CNC(=O)c2ccc(C(F)(F)F)cc2)O[C@@](OCCCSCCNC(=O)c2ccc(C(=O)NCCSCCCO[C@]3(C(=O)[O-])C[C@H](O)[C@@H](NC(C)=O)[C@H]([C@H](O)[C@H](O)CNC(=O)c4ccc(C(F)(F)F)cc4)O3)cc2)(C(=O)[O-])C[C@@H]1O.[Na+].[Na+] [Compound 71] | 32
CC(=O)N[C@H]1[C@H]([C@H](O)[C@H](O)CNC(=O)c2ccc(-c3ccccc3)cc2)O[C@](C(=O)[O-])(n2cc(CCCCNC(=O)c3ccc(C(=O)NCCCCc4cn([C@]5(C(=O)[O-])C[C@H](O)[C@@H](NC(C)=O)[C@H]([C@H](O)[C@H](O)CNC(=O)c6ccc(-c7ccccc7)cc6)O5)nn4)cc3)nn2)C[C@@H]1O.[Na+].[Na+] [Compound 110] | 12
CC(=O)N[C@H]1[C@H]([C@H](O)[C@H](O)CNC(=O)C#Cc2ccccc2)O[C@@](OCCCSCCNC(=O)c2ccc(-c3ccc(C(=O)NCCSCCCO[C@]4(C(=O)[O-])C[C@H](O)[C@@H](NC(C)=O)[C@H]([C@H](O)[C@H](O)CNC(=O)C#Cc5ccccc5)O4)cc3)cc2)(C(=O)[O-])C[C@@H]1O.[Na+].[Na+] [Compound 129] | 21
